The subject of one assay is PC3 (prostate). Kind of assay: In vitro cytotoxic activity MTT assay, PC3. It counts as cell-based. Conditions: Homo sapiens, PC-3; PC3 cells, exposed for 96 hours; read-out: IC50, 50% inhibition of cell proliferation, PC3 (prostate). On the procedure:
(§1) Compounds 1-16 were screened for their in vitro cytotoxic activity utilizing a 3-(4,5-dimethyl-thiazol-2-yl)-2,5-diphenyltetrazolium bromide (MTT) assay against selected cancer human cell lines consisting of PC3 (prostate), HCT116 (colon), A375 (melanoma), H1299 (lung), MIAPaCa-2 (pancreas), HL60 (leukemia), MCF7 (breast), MDA-MB-231 (breast) (T. Mosmann, J. Immunol. Meth., 1983, 65, 55-63). The cells were cultured at 37° C. in RMPI1640 medium supplemented with 10% fetal bovine serum, 50 IU/mL penicillin, and 50 μg/mL streptomycin in a 5% CO2 incubator. All cells were sub-cultured 3 times/week by trypsinisation. Viable cells were seeded and allowed to adhere for 12 h before a test drug was added in 96-well plates at an initial density of 1.0×10^5 cells/mL. Tumour cell lines were separately exposed to various concentrations of the tested compounds followed by incubation at a temperature of 37° C. during 96 h inside a medium of fresh RMPI 1640. Cells were subsequently incubated at 37° C. using MTT at 0.5 mg/mL during 4 h. After removal of supernatant, formazan crystals were dissolved in isopropanol and the optical density was measured at 570 nm. CX-4945 was used as a positive control.
In general terms: Formazan colour is commonly taken as a measure of viable cells.

In the next assay the test system is HCT116 (colon). Kind of assay: In vitro cytotoxic activity MTT assay, HCT116. Type of assay: cell-based. Conditions: Homo sapiens, HCT-116; HCT116 cells, exposed for 96 hours; read-out: IC50, 50% inhibition of cell proliferation, HCT116 (colon). On the procedure: as §1
The test system of another assay is A375 (melanoma). Put plainly: In vitro cytotoxic activity MTT assay, A375. Type of assay: cell-based. The note with it: Homo sapiens, A-375; A375 cells, exposed for 96 hours; read-out: IC50, 50% inhibition of cell proliferation, A375 (melanoma). On the procedure:
as §1

Another assay concerns H1299 (lung). Kind of assay: In vitro cytotoxic activity MTT assay, H1299. It counts as cell-based. The note with it: Homo sapiens, NCI-H1299; H1299 cells, exposed for 96 hours; read-out: IC50, 50% inhibition of cell proliferation, H1299 (lung). As to the method:
as §1

The subject of the next assay is MIAPaCa-2 (pancreas). Kind of assay: In vitro cytotoxic activity MTT assay, MIAPaCa-2. Conditions: Homo sapiens, MIA PaCa-2; MIAPaCa-2 cells, exposed for 96 hours; read-out: IC50, 50% inhibition of cell proliferation, MIAPaCa-2 (pancreas). Type of assay: cell-based. On the procedure:
as §1

For the next assay, the system named is HL60 (leukemia). Kind of assay: In vitro cytotoxic activity MTT assay, HL60. It counts as cell-based. Conditions: Homo sapiens, HL-60; HL60 cells, exposed for 96 hours; read-out: IC50, 50% inhibition of cell proliferation, HL60 (leukemia). On the procedure:
as §1

The subject of another assay is MCF7 (breast). Kind of assay: In vitro cytotoxic activity MTT assay, MCF7. Type of assay: cell-based. The note with it: Homo sapiens; MCF7 cells, exposed for 96 hours; read-out: IC50, 50% inhibition of cell proliferation, MCF7 (breast). On the procedure:
as §1

The subject of the next assay is MDA-MB-231 (breast). Kind of assay: In vitro cytotoxic activity MTT assay, MDA-MB-231. Type of assay: cell-based. The note with it: Homo sapiens; MDA-MB-231 cells, exposed for 96 hours; read-out: IC50, 50% inhibition of cell proliferation, MDA-MB-231 (breast). On the procedure:
as §1

The next assay addresses T1, recombinant human CK2 (Homo sapiens, UniProt P68400).
T1 construct: purchased Millipore
Kind of assay: CK2 Kinase Assay (33P-ATP, substrate peptide RRRDDDSDDD). It counts as biochemical. Conditions: final ATP concentration 15 μM, 10 min at 30° C.; read-out: protein kinase CK2 IC50. On the procedure:
CK2 Kinase Assay was conducted using the protocol as described in Pierre F. et al; J. Med. Chem. 2011, 54, 635-654. The tested compounds in aqueous solution were added at a volume of 10 μL to a reaction mixture comprising 10 μL of assay dilution buffer (ADB; 20 mM MOPS, pH 7.2, 25 mM β-glycerol phosphate, 5 mM EGTA, 1 mM sodium orthovanadate, and 1 mM dithiothreitol), 10 μL of substrate peptide (RRRDDDSDDD, dissolved in ADB at a concentration of 1 mM), 10 μL of recombinant human CK2 (RR-holoenzyme, 25 ng dissolved in ADB; Millipore). Reactions were initiated by the addition of 10 μL of ATP solution (90% 75 mMMgCl2, 75 μM ATP (final ATP concentration:15 μM) dissolved in ADB; 10% [γ-33P] ATP (stock 1 mCi/100 μL; 3000 Ci/mmol (Perkin-Elmer) and maintained for 10 min at 30° C. The reactions were quenched with 100 μL of 0.75% phosphoric acid and then transferred to and filtered through a phosphor cellulose filter plate (Millipore). After washing each well five times with 0.75% phosphoric acid, the plate was dried under vacuum for 5 min and, following the addition of 15 μL of scintillation fluid to each well, the residual radioactivity was measured using a Wallac […] counter. The IC50 values were derived from eight concentrations of test inhibitors.

The structures appear in SMILES notation.

T1 sequence (P68400 whole entry): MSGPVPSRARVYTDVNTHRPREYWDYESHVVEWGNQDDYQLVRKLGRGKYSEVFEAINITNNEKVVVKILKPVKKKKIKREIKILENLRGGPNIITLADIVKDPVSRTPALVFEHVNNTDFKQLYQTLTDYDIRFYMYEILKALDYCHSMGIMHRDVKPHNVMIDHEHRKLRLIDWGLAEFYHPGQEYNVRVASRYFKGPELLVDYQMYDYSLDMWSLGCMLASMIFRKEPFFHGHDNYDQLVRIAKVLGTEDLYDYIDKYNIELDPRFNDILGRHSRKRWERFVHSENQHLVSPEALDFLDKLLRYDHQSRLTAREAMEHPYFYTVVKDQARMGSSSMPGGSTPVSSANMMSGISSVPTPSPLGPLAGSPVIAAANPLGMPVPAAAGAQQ
T1 sequence (P67870 whole entry partner): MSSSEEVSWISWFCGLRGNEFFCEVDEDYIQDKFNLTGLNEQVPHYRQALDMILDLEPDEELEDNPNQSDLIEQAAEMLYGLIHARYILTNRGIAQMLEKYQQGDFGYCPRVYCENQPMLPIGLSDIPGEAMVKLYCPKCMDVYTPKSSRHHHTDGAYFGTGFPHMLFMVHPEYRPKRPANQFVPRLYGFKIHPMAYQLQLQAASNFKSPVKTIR

With `O=C1Nc2c(Nc3cccc(Cl)c3)nc3cc(C(=O)O)ccc3c2C1=O` [Compound 1, 4-((3-chlorophenyl)amino)-1,2-dioxo-2,3-dihydro-1H-pyrrolo[2,3-c]quinoline-7-carboxylic acid], the IC50 in the assay on PC3 (prostate) worked out at 900 nM; in the assay on HCT116 (colon), 1100 nM; with A375 (melanoma), 2300 nM; with H1299 (lung), 1600 nM; in the assay on MIAPaCa-2 (pancreas), 1500 nM; with HL60 (leukemia) it was 2900 nM. In addition, the figures for the IC50 in the assay with MCF7 (breast), in the assay with MDA-MB-231 (breast) and on recombinant human CK2 were 5.1 µM, 3.8 µM and 19 nM, respectively.
